Results on 2 molecules are retold here after patent US20190119504A1 (Dow Global Technologies LLC, priority 2016, published 2019).

The subject of one assay is Chlorella sp. ATCC 7516. Briefly: Algal efficacy testing of dry paint film, modified ASTM 5589. Format: cell-based. The protocol:
(§1) These paints were then diluted with a biocide free acrylic/silicone based paint and mixed to prepare targeted concentrations of biocide combinations for the testing. The total biocides concentrations obtained were 125, 250, 500, 1000, 2000 and 5000 ppm. After biocides addition or dilution, the paints were mixed 90 seconds with the horse power shaker (AXEL 75M3372/Agitateur SO-10MI) until uniformity was achieved. […] After one day, the paints were applied to Schleicher & Schuell filter paper at 280 μm wet film thickness and dried for 3 days at room temperature avoiding direct exposure to sunlight. […] This sample size allowed for an agar border when the sample disc was placed into the well of the test plate.
Algal efficacy was tested according to modified ASTM 5589 which is a standard accelerated test method for determining resistance of various coatings (including paints) to algal defacement. To accommodate for high-throughput screening, this method was scaled down from petri plates to 6-well plates. Bold Modified Basal Freshwater Nutrient Solution was used as growth medium for the algal culture and Bold's agar was used for the efficacy testing. A single coupon was placed with a pair of sterile forceps at the center of the agar plug (on top) with the painted surface facing upwards. The algal inoculum was prepared by diluting an exponentially growing culture of Chlorella sp. to 1×10^6 cfu/ml.
Each well that contains a tested coupon was inoculated with 1750 μl of algal suspension (1×10^6 cfu/ml) making sure that the whole surface (paint film as well as the agar surrounding it) was evenly covered. The plates were incubated at room temp (21° C.-25° C.) with cyclic exposure to 14 hours fluorescent light followed by 10 hours darkness, for a period of three weeks.
(§2) The SI is calculated based on F. C. Kull et.
SI=Qa/QA+Qb/QB • Qa=the concentration of Antimicrobial A in the blend • QA=the concentration of Antimicrobial A as the only biocide • Qb=the concentration of Antimicrobial B in the blend • QB=the concentration of Antimicrobial B as the only antimicrobial […]

Assay [1] relates to Aspergillus niger DSMZ 1957. Briefly: Fungal efficacy testing of dry paint film, modified ASTM 5590. It counts as cell-based. Particulars: A. niger 1957, three weeks. The protocol: as §1
ASTM 5590 is a standard accelerated test method for determining resistance of various coatings (including paints) to fungal defacement. To accommodate for high-throughput screening, this method was scaled down from petri plates to 6-well plates. […] A single coupon was placed with a pair of sterile forceps at the center of the agar plug (on top) with the painted surface facing upwards.
as §2
SI=Qa/QA+Qb/QB • Qa=the concentration of Antimicrobial A in the blend • QA=the concentration of Antimicrobial A as the only biocide • Qb=the concentration of Antimicrobial B in the blend • QB=the concentration of Antimicrobial B as the only antimicrobial
SI value of <1 in the formula indicates a synergism of the blended biocides exists.

What is called inhibition is the share of the control response that was lost under treatment. Take `Cc1ccc(S(=O)(=O)C(I)I)cc1` [DIMTS, Diiodomethyl p-tolyl sulfone]: in the assay with Chlorella sp. ATCC 7516 (504 h, total conc 5000 ppm, three weeks, color intensity vs blank), the inhibition at 5000 ppm was 95%. For the same molecule, the “Total conc, ppm (concentration used as minimum inhibitory concentration for SI; pass level 75% inhibition)” value in the assay with Chlorella sp. ATCC 7516 (total active ingredient in liquid paint, dry film, three weeks) was determined as 5000 ppm. Moreover, the “Total conc, ppm (concentration used as minimum inhibitory concentration for SI; pass level 75% inhibition; where pass not reached, concentration tested)” value in assay [1] (total active ingredient in liquid paint, dry film) is listed as 2000 ppm. Besides, the inhibition at 2000 ppm in assay [1] (Aspergillus niger, DSMZ1957, 504 h, total conc 2000 ppm, area covered, increments of 5%) amounted to 95%.

Consider `O=c1[nH]c2c(c(=O)n1C1CCCCC1)CCC2` [LENACIL, 3-Cyclohexyl-6,7-dihydro-1H-cyclopentapyrimidine-2,4-(3H,5H)-dione], for which the inhibition at 1000 ppm with Chlorella sp. ATCC 7516 (504 h) turned out to be 90%. Moreover, the inhibition at 10000 ppm in assay [1] (Aspergillus niger, DSMZ1957, 504 h, total conc 10000 ppm, area covered, increments of 5%) stood at 0%.
